Test results reported in PMC4129416, “YLT192, a Novel, Orally Active Bioavailable Inhibitor of VEGFR2 Signaling with Potent Antiangiogenic Activity and Antitumor Efficacy in Preclinical Models” (Scientific Reports, 2014).
“Also recorded” adds a separate entry of the source. Read-outs that look alike come from different tables or passages of the source.

What was measured:
[1] = tested on: HUVEC; assay: EdU incorporation assay, VEGF165-stimulated HUVEC; type: cell-based, human
Protocol: The inhibition effect of YLT192 on VEGF165-stimulated HUVEC growth was examined using MTT assay.
EdU is a thymidine analogue used to label proliferating cells which can incorporate into replication DNA when cells are dividing. Cells growing in 96-well plates were treated with different concentrations of YLT192 for 24 hours, and then assayed with Cell-Light™ EdU DNA Cell Proliferation Kit according to the manufacture's instructions. Each assay was replicated 3 times.
Supplementary Figure S2. YLT192 inhibited VEGF-stimulated HUVECs proliferation in the EdU incorporation assay. The EdU-positive(red ﬂuorescent staining) cells and Hoechst staining(blue ﬂuorescent staining) cells represented proliferating and total cells, respectively(100×). Quantification was shown on the right panels. Data represent the mean ± SEM of three different experiments. Each experiment was performed in duplicate. *P<0.05, **P<0.01. […]

[2] = tested on: zebrafish intersegmental vessels; assay: Transgenic zebrafish (FLK-1: EGFP) embryonic angiogenesis model; type: in vivo; conditions: 5 μM; zebrafish embryos treated 15 hpf, imaged 30 hpf
Text: To test the anti-angiogenesis effects of YLT192 in vivo, we used a FLK-1 promoter enhanced green fluorescent protein (EGFP) transgenic zebrafish model.
Figure 3 YLT192 inhibited angiogenesis in vivo. (A) Fluorescent images of 30 hpf zebrafish treated with vehicle or concentrations of YLT192. ISV growth was inhibited by YLT192. One representative experiment of three is shown. Data are means ± SEM (n = 10 per group), *P < 0.05, **P < 0.01. Scale bars represent 100 μm. […] Frozen sections of HCT116 tumors were tested by immunohistochemistry analysis with anti-CD31 antibody. Representative images of the tumor vasculature from vehicle and YLT192 treated mice were shown. The fields were averaged in each tumor, and the averages for each animal were used to give the final mean ± SD (n = 6 mice per group). *P < 0.05, **P < 0.01. Scale bars represent 100 μm. […] Alginate beads containing 5 × 10^4 CT26 cells were implanted s.c. into the backs of mice. Mice were then orally treated with YLT192 or vehicle once daily. Beads were surgically removed 14 days later and FITC-dextran was quantified. […] Data are means ± SD (n = 6 mice per group), *P < 0.05, **P < 0.01. Scale bars represent 500 μm.
The transgenic zebrafish (FLK-1: EGFP) was used in the experiments. The embryos were grown and maintained as described previously. […]

[3] = tested on: tumor cells; assay: Cancer cell viability assays, whole panel; type: cell-based
[4] = tested on: LS147T; assay: Inhibition of tumor cell growth; type: cell-based; conditions: human colorectal carcinoma, 48 hour treatment, means ± SD, n=3
Text: (§1) Data are means ± SD, n=3.
(§2) cell line cell type IC50(μM) […]

[5] = tested on: MV4-11; assay: Inhibition of tumor cell growth; type: cell-based; conditions: MV4-11, human acute myeloid leukemia; 48 hour treatment; means ± SD, n=3
Text: as §1, §2

[6] = tested on: SKOV-3; assay: Inhibition of tumor cell growth; type: cell-based; conditions: SK-OV-3; SKOV-3, human ovarian carcinoma; 48 hour treatment; means ± SD, n=3
Text: as §1, §2

[7] = tested on: A431; assay: Inhibition of tumor cell growth; type: cell-based; conditions: A-431; A431, human pidermoid carcinoma; 48 hour treatment; means ± SD, n=3
Text: as §1, §2

[8] = tested on: MDA-MB-231; assay: Inhibition of tumor cell growth; type: cell-based; conditions: MDA-MB-231, human mammary carcinoma; 48 hour treatment; means ± SD, n=3
Text: as §1, §2

[9] = tested on: SPC-A1; assay: Inhibition of tumor cell growth; type: cell-based; conditions: SPCA1; SPC-A1, human lung cancer; 48 hour treatment; means ± SD, n=3
Text: as §1, §2

[10] = tested on: Hela; assay: Inhibition of tumor cell growth; type: cell-based; conditions: human epithelial carcinoma, 48 hour treatment, means ± SD, n=3
Text: as §1, §2

[11] = tested on: BEL7402; assay: Inhibition of tumor cell growth; type: cell-based; conditions: Bel-7402; BEL7402, human hepatocellular carcinoma; 48 hour treatment; means ± SD, n=3
Text: as §1, §2

[12] = tested on: MCF-7; assay: Inhibition of tumor cell growth; type: cell-based; conditions: MCF7; MCF-7, human mammary carcinoma; 48 hour treatment; means ± SD, n=3
Text: as §1, §2

[13] = tested on: SW620; assay: Inhibition of tumor cell growth; type: cell-based; conditions: SW-620; SW620, human colorectal carcinoma; 48 hour treatment; means ± SD, n=3
Text: as §1, §2

[14] = tested on: SMMC-7721; assay: Inhibition of tumor cell growth; type: cell-based; conditions: SMMC-7721, human hepatocellular carcinoma; 48 hour treatment; means ± SD, n=3
Text: as §1, §2

[15] = tested on: Hep G2; assay: Inhibition of tumor cell growth; type: cell-based; conditions: HepG2; Hep G2, human hepatocellular carcinoma; 48 hour treatment; means ± SD, n=3
Protocol: (§3) The proliferative inhibitory ability of YLT192 on tumor cells was investigated. […] Inhibition of cell proliferation is a possible approach for cancer treatment. EdU incorporation assay was performed to investigate the anti-proliferative effects of YLT192 against U251 and HCT116 cells.
(§4) treatment with YLT192. Data are means ± SD, n=3.
as §2

[16] = tested on: BxPC-3; assay: Inhibition of tumor cell growth; type: cell-based; conditions: BxPC-3, human pancreatic cancer; 48 hour treatment; means ± SD, n=3
Protocol: as §3, §4, §2

[17] = tested on: PANC-1; assay: Inhibition of tumor cell growth; type: cell-based; conditions: PANC-1, human pancreatic cancer; 48 hour treatment; means ± SD, n=3
Protocol: as §3, §4, §2

[18] = tested on: A2058; assay: Inhibition of tumor cell growth; type: cell-based; conditions: A2058, human melanoma; 48 hour treatment; means ± SD, n=3
Protocol: as §3, §4

[19] = tested on: A875; assay: Inhibition of tumor cell growth; type: cell-based; conditions: A875, human melanoma; 48 hour treatment; means ± SD, n=3
Protocol: as §3, §4

CNC(=O)c1cc(Oc2ccc(NC(=O)c3cccc(OC)c3)cc2)ccn1 [YLT192]
VEGF165-stimulated HUVEC proliferation, EdU incorporation [1]: inhibited VEGF165-stimulated HUVEC proliferation
formation of intersegmental vessels [2]: considerably blocked; also recorded: significantly inhibited
IC50 ([3]; range for most tumor cell lines of the panel, read-out: Most IC50 against the tumor cells): 6 to 20 µM
IC50 ([3]; range over the cancer cell panel, read-out: IC50 values in cancer cell viability assays): 6 to 30 µM
IC50 [4]: 9 ± 1.1 µM
IC50 [5]: 21.9 ± 1.9 µM
IC50 [6]: 8.2 ± 1.5 µM
IC50 [7]: 7.7 ± 0.9 µM
IC50 [8]: 11.9 ± 2.1 µM
IC50 [9]: 16.4 ± 1.4 µM
IC50 [10]: 18.9 ± 2.4 µM
IC50 [11]: 11.3 ± 1.1 µM
IC50 [12]: 16.8 ± 1.7 µM
IC50 [13]: 7.9 ± 1.7 µM
IC50 [14]: 12.1 ± 1.6 µM
IC50 [15]: 7.9 ± 0.5 µM
IC50 [16]: 8.2 ± 0.6 µM
IC50 [17]: 9.8 ± 1.9 µM
IC50 [18]: 10.7 ± 1.1 µM
IC50 [19]: 14.1 ± 2.1 µM
